pIC50: −log10 of the molar value.
Biological target: T1, DNA polymerase iota (Mus musculus, UniProt Q6R3M4)
T1 sequence (Q6R3M4 whole entry): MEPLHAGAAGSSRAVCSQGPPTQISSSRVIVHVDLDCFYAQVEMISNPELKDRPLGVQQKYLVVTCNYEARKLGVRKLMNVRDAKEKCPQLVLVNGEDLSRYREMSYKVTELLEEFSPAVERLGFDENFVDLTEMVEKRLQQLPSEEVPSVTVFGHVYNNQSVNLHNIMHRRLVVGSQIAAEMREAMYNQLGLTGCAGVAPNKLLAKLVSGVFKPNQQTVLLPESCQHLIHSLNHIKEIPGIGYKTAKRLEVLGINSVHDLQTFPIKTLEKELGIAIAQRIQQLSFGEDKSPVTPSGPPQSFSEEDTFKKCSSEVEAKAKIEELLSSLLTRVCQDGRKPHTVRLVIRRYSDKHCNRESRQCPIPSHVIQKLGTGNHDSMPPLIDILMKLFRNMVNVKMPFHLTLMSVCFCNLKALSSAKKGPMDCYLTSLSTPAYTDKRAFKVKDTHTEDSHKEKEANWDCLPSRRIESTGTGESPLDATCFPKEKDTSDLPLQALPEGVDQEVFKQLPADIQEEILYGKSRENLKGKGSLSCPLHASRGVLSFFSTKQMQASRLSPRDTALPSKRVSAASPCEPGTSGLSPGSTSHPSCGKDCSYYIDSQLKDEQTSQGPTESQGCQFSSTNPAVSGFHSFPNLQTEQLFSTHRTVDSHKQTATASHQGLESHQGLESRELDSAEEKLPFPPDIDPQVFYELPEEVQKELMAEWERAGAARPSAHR
Assay: Inhibition of mouse DNA polymerase iota

| pIC50 | Compound |
| --- | --- |
| 4.49 | COC1=C(C(=O)CC(C)O)C(=O)C(C)(/C=C/C=C/C(C)O)O1 (configuration not stated) [PENICILLIOL B] |
| 4.70 | C/C=C/C(=O)C1=C(OC)OC(C)(/C=C/C=C/C(C)O)C1=O (configuration not stated) [PENICILLIOL A] |

Source: ChEMBL document CHEMBL1152764, “Penicilliols A and B, novel inhibitors specific to mammalian Y-family DNA polymerases” (Bioorg Med Chem, 2009)
